Assay results reported in the NIST ThermoML archive (doi:10.1016/j.fluid.2017.06.024).
± gives the expanded uncertainty stated by the source.

Conditions: Liquid; for speed of sound: Frequency=3 MHz, Pulse-echo method; for mass density: Vibrating tube method

CC(C)OC(C)C [diisopropyl ether]
Conditions	mass density [kg/m3]	speed of sound [m/s]
293.15 K, 100 kPa	723.5 ± 0.6	1019.7 ± 2.4
293.15 K, 10000 kPa	734.6 ± 0.6	–
293.15 K, 20000 kPa	744.5 ± 0.6	1161.2 ± 2.5
293.15 K, 30000 kPa	753.3 ± 0.7	–
293.15 K, 40000 kPa	761.3 ± 0.7	1274.5 ± 2.7
293.15 K, 50000 kPa	768.6 ± 0.8	–
293.15 K, 60000 kPa	775.4 ± 0.8	1369.3 ± 2.9
293.15 K, 70000 kPa	781.7 ± 0.9	–
293.15 K, 80000 kPa	787.6 ± 0.9	1454.2 ± 3.1
293.15 K, 90000 kPa	793.2 ± 0.9	–
293.15 K, 100000 kPa	798.5 ± 1	1528.7 ± 3.2
293.15 K, 110000 kPa	803.5 ± 1	–
293.15 K, 120000 kPa	808.4 ± 1.1	–
293.15 K, 130000 kPa	813 ± 1.1	–
293.15 K, 140000 kPa	817.4 ± 1.1	–
303.15 K, 100 kPa	712.9 ± 0.6	974.32 ± 2.3
303.15 K, 10000 kPa	725.2 ± 0.6	–
303.15 K, 20000 kPa	735.9 ± 0.6	1122.6 ± 2.5
303.15 K, 30000 kPa	745.3 ± 0.7	–
303.15 K, 40000 kPa	753.8 ± 0.7	1240.4 ± 2.7
303.15 K, 50000 kPa	761.5 ± 0.8	–
303.15 K, 60000 kPa	768.5 ± 0.8	1337.6 ± 2.9
303.15 K, 70000 kPa	775.1 ± 0.9	–
303.15 K, 80000 kPa	781.2 ± 0.9	1423.4 ± 3
303.15 K, 90000 kPa	787 ± 1	–
303.15 K, 100000 kPa	792.4 ± 1	1501.9 ± 3.2
303.15 K, 110000 kPa	797.6 ± 1.1	–
303.15 K, 120000 kPa	802.5 ± 1.1	–
303.15 K, 130000 kPa	807.3 ± 1.1	–
303.15 K, 140000 kPa	811.8 ± 1.2	–
313.15 K, 100 kPa	702.2 ± 0.6	930.24 ± 2.2
313.15 K, 10000 kPa	715.5 ± 0.6	–
313.15 K, 20000 kPa	726.9 ± 0.6	1086.8 ± 2.4
313.15 K, 30000 kPa	736.9 ± 0.7	–
313.15 K, 40000 kPa	745.7 ± 0.7	1207.9 ± 2.6
313.15 K, 50000 kPa	753.8 ± 0.8	–
313.15 K, 60000 kPa	761.1 ± 0.8	1308.1 ± 2.8
313.15 K, 70000 kPa	768.1 ± 0.9	–
313.15 K, 80000 kPa	774.3 ± 0.9	1396.7 ± 3
313.15 K, 90000 kPa	780.3 ± 1	–
313.15 K, 100000 kPa	786 ± 1	1475 ± 3.1
313.15 K, 110000 kPa	791.5 ± 1.1	–
313.15 K, 120000 kPa	796.4 ± 1.1	–
313.15 K, 130000 kPa	801.4 ± 1.2	–
313.15 K, 140000 kPa	805.9 ± 1.2	–
323.15 K, 100 kPa	691.5 ± 0.6	887.83 ± 2.1
323.15 K, 10000 kPa	706 ± 0.6	–
323.15 K, 20000 kPa	718 ± 0.6	1051.9 ± 2.3
323.15 K, 30000 kPa	728.5 ± 0.7	–
323.15 K, 40000 kPa	737.8 ± 0.7	1177.1 ± 2.5
323.15 K, 50000 kPa	746.2 ± 0.8	–
323.15 K, 60000 kPa	753.9 ± 0.8	1279 ± 2.7
323.15 K, 70000 kPa	761 ± 0.9	–
323.15 K, 80000 kPa	767.5 ± 0.9	1368.7 ± 2.9
323.15 K, 90000 kPa	773.7 ± 1	–
323.15 K, 100000 kPa	779.5 ± 1	1448.7 ± 3.1
323.15 K, 110000 kPa	785 ± 1.1	–
323.15 K, 120000 kPa	790.3 ± 1.1	–
323.15 K, 130000 kPa	795.2 ± 1.2	–
323.15 K, 140000 kPa	800 ± 1.2	–
333.15 K, 100 kPa	680.6 ± 0.6	847.29 ± 2
333.15 K, 10000 kPa	696.3 ± 0.6	–
333.15 K, 20000 kPa	709.3 ± 0.6	1017.8 ± 2.3
333.15 K, 30000 kPa	720.5 ± 0.7	–
333.15 K, 40000 kPa	730.3 ± 0.7	1146.8 ± 2.5
333.15 K, 50000 kPa	739.1 ± 0.8	–
333.15 K, 60000 kPa	747.1 ± 0.9	1252.4 ± 2.7
333.15 K, 70000 kPa	754.5 ± 0.9	–
333.15 K, 80000 kPa	761.4 ± 1	1343.2 ± 2.9
333.15 K, 90000 kPa	767.8 ± 1	–
333.15 K, 100000 kPa	773.8 ± 1.1	1423.5 ± 3
333.15 K, 110000 kPa	779.4 ± 1.1	–
333.15 K, 120000 kPa	784.8 ± 1.2	–
333.15 K, 130000 kPa	789.9 ± 1.2	–
333.15 K, 140000 kPa	794.7 ± 1.3	–
343.15 K, 10000 kPa	686 ± 0.6	–
343.15 K, 20000 kPa	700 ± 0.6	984.53 ± 2.2
343.15 K, 30000 kPa	711.8 ± 0.7	–
343.15 K, 40000 kPa	722.2 ± 0.8	1117.8 ± 2.4
343.15 K, 50000 kPa	731.4 ± 0.8	–
343.15 K, 60000 kPa	739.7 ± 0.9	1226.4 ± 2.6
343.15 K, 70000 kPa	747.3 ± 0.9	–
343.15 K, 80000 kPa	754.4 ± 1	1318.7 ± 2.8
343.15 K, 90000 kPa	761 ± 1	–
343.15 K, 100000 kPa	767.2 ± 1.1	1400.8 ± 3
343.15 K, 110000 kPa	773.2 ± 1.1	–
343.15 K, 120000 kPa	778.6 ± 1.2	–
343.15 K, 130000 kPa	784 ± 1.2	–
343.15 K, 140000 kPa	788.9 ± 1.3	–
353.15 K, 10000 kPa	676.2 ± 0.6	–
353.15 K, 20000 kPa	691.2 ± 0.7	953.14 ± 2.1
353.15 K, 30000 kPa	703.7 ± 0.7	–
353.15 K, 40000 kPa	714.6 ± 0.8	1090.7 ± 2.4
353.15 K, 50000 kPa	724.2 ± 0.8	–
353.15 K, 60000 kPa	733 ± 0.9	1200.4 ± 2.6
353.15 K, 70000 kPa	740.9 ± 0.9	–
353.15 K, 80000 kPa	748.2 ± 1	1294.6 ± 2.8
353.15 K, 90000 kPa	755.1 ± 1.1	–
353.15 K, 100000 kPa	761.4 ± 1.1	1378.4 ± 2.9
353.15 K, 110000 kPa	767.3 ± 1.2	–
353.15 K, 120000 kPa	773 ± 1.2	–
353.15 K, 130000 kPa	778.4 ± 1.3	–
353.15 K, 140000 kPa	783.5 ± 1.3	–
363.15 K, 10000 kPa	666.1 ± 0.6	–
363.15 K, 20000 kPa	682.3 ± 0.7	–
363.15 K, 30000 kPa	695.6 ± 0.7	–
363.15 K, 40000 kPa	707 ± 0.8	–
363.15 K, 50000 kPa	717.1 ± 0.8	–
363.15 K, 60000 kPa	726.1 ± 0.9	–
363.15 K, 70000 kPa	734.4 ± 1	–
363.15 K, 80000 kPa	742 ± 1	–
363.15 K, 90000 kPa	749 ± 1.1	–
363.15 K, 100000 kPa	755.5 ± 1.1	–
363.15 K, 110000 kPa	761.7 ± 1.2	–
363.15 K, 120000 kPa	767.5 ± 1.2	–
363.15 K, 130000 kPa	773 ± 1.3	–
363.15 K, 140000 kPa	778.3 ± 1.4	–
373.15 K, 10000 kPa	655.9 ± 0.6	–
373.15 K, 20000 kPa	673.3 ± 0.7	–
373.15 K, 30000 kPa	687.4 ± 0.7	–
373.15 K, 40000 kPa	699.4 ± 0.8	–
373.15 K, 50000 kPa	709.9 ± 0.8	–
373.15 K, 60000 kPa	719.3 ± 0.9	–
373.15 K, 70000 kPa	728 ± 1	–
373.15 K, 80000 kPa	735.7 ± 1	–
373.15 K, 90000 kPa	743.1 ± 1.1	–
373.15 K, 100000 kPa	749.8 ± 1.1	–
373.15 K, 110000 kPa	756.2 ± 1.2	–
373.15 K, 120000 kPa	762.2 ± 1.3	–
373.15 K, 130000 kPa	767.8 ± 1.3	–
373.15 K, 140000 kPa	773.1 ± 1.4	–
383.15 K, 10000 kPa	645.3 ± 0.6	–
383.15 K, 20000 kPa	664 ± 0.7	–
383.15 K, 30000 kPa	679 ± 0.7	–
383.15 K, 40000 kPa	691.8 ± 0.8	–
383.15 K, 50000 kPa	702.8 ± 0.9	–
383.15 K, 60000 kPa	712.5 ± 0.9	–
383.15 K, 70000 kPa	721.4 ± 1	–
383.15 K, 80000 kPa	729.5 ± 1.1	–
383.15 K, 90000 kPa	737 ± 1.1	–
383.15 K, 100000 kPa	743.9 ± 1.2	–
383.15 K, 110000 kPa	750.4 ± 1.2	–
383.15 K, 120000 kPa	756.6 ± 1.3	–
383.15 K, 130000 kPa	762.4 ± 1.4	–
383.15 K, 140000 kPa	767.9 ± 1.4	–
393.15 K, 10000 kPa	634.8 ± 0.6	–
393.15 K, 20000 kPa	654.9 ± 0.7	–
393.15 K, 30000 kPa	670.7 ± 0.7	–
393.15 K, 40000 kPa	684 ± 0.8	–
393.15 K, 50000 kPa	695.4 ± 0.9	–
393.15 K, 60000 kPa	705.6 ± 0.9	–
393.15 K, 70000 kPa	714.8 ± 1	–
393.15 K, 80000 kPa	722.9 ± 1.1	–
393.15 K, 90000 kPa	730.8 ± 1.1	–
393.15 K, 100000 kPa	738 ± 1.2	–
393.15 K, 110000 kPa	744.6 ± 1.3	–
393.15 K, 120000 kPa	750.9 ± 1.3	–
393.15 K, 130000 kPa	756.8 ± 1.4	–
393.15 K, 140000 kPa	762.3 ± 1.4	–
